Experimental data taken from patent US20220340597A1, “HEXAHYDRO-1H-PYRAZINO[1,2-A]PYRAZINE COMPOUNDS FOR THE TREATMENT OF AUTOIMMUNE DISEASE” (Hoffmann-La Roche Inc., priority 2019, published 2022).

Biological target: T1, human TLR9 (Homo sapiens, UniProt Q9NR96)
T1 construct: host or cells: HEK293 (HEK-Blue hTLR9)
T1 sequence (Q9NR96 26-1032): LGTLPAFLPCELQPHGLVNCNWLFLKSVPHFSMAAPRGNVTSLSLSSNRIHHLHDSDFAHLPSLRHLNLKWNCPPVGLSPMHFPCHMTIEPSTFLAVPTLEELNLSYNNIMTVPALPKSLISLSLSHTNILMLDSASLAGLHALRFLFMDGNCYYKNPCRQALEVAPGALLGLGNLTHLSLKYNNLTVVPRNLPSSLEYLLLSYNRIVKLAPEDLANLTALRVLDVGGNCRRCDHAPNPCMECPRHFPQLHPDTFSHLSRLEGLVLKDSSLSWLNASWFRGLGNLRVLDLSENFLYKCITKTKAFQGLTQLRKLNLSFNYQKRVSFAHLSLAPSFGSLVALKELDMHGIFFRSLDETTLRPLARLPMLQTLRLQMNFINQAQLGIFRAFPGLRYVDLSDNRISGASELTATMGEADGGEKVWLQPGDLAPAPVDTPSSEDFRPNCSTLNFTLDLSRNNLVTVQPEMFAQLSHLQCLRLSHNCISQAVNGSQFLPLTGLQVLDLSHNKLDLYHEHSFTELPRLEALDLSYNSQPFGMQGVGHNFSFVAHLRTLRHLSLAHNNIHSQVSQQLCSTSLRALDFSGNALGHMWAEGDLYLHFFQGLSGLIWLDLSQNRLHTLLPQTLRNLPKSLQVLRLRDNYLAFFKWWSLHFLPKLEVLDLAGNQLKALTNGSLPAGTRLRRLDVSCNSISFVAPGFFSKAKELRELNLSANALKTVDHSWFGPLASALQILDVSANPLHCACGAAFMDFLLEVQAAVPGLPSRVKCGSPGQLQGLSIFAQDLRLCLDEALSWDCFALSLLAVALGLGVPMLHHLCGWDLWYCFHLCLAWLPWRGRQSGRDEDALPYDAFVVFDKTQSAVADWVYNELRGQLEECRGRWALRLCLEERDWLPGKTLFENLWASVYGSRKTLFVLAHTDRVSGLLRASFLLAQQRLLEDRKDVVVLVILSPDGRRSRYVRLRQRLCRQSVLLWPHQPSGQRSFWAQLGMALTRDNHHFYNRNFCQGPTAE
Assay: HEK293-Blue-hTLR-9 cells assay
Assay type: cell-based
Settings: HEK293-Blue-hTLR9 cells, ODN2006 stimulation, 20 hrs, SEAP reporter; read-out: HEK/hTLR9 IC50
Description: The following tests were carried out in order to determine the activity of the compounds of formula (I) and (Ia) in HEK293-Blue-hTLR-7/8/9 cells assay.
HEK293-Blue-hTLR-9 Cells Assay:
A stable HEK293-Blue-hTLR-9 cell line was purchased from InvivoGen (Cat. #: hkb-htlr9, San Diego, Calif., USA). These cells were originally designed for studying the stimulation of human TLR9 by monitoring the activation of NF-κB. A SEAP (secreted embryonic alkaline phosphatase) reporter gene was placed under the control of the […] minimal promoter fused to five NF-κB and AP-1-binding sites. The SEAP was induced by activating NF-κB and AP-1 via stimulating HEK-Blue hTLR9 cells with TLR9 ligands. Therefore, the reporter expression was declined by TLR9 antagonist under the stimulation of a ligand, such as ODN2006 (Cat. #: tlr1-2006-1, Invivogen, San Diego, Calif., USA), for incubation of 20 hrs. The cell culture supernatant SEAP reporter activity was determined using QUANTI-Blue™ kit (Cat. #: rep-qb1, Invivogen, San Diego, Calif., USA) at a wavelength of 640 nm, a detection medium that turns purple or blue in the presence of alkaline phosphatase.
Then 20 μL of the supernatant from each well was incubated with 180 μL Quanti-blue substrate solution at 37° C. for 2 h and the absorbance was read at 620-655 nm using a spectrophotometer. The signaling pathway that TLR9 activation leads to downstream NF-κB activation has been widely accepted, and therefore similar reporter assay was modified for evaluating TLR9 antagonist.

| Compound | IC50 [nM] |
| --- | --- |
| CO[C@@H]1CN(c2ccc(CCN3CCN4[C@@H](C3)CN(c3ccc(C#N)n5ncc(F)c35)C[C@H]4C)cc2)C[C@H]1N [Example 66, 4-[(4R,9aS)-8-[2-[4-[(3R,4R)-3-amino-4-methoxy-pyrrolidin-1-yl]phenyl]ethyl]-4-methyl-3,4,6,7,9,9a-hexahydro-1H-pyrazino[1,2-a]pyrazin-2-yl]-3-fluoro-pyrazolo[1,5-a]pyridine-7-carbonitrile] | 116 |
| CO[C@H]1CN(c2ccc(CCN3CCN4[C@@H](C3)CN(c3ccc(C#N)c5ncccc35)C[C@H]4C)cn2)C[C@@H]1N [Example 25, 5-[(4R,9aS)-8-[2-[6-[(3S,4S)-3-amino-4-methoxy-pyrrolidin-1-yl]-3-pyridyl]ethyl]-4-methyl-3,4,6,7,9,9a-hexahydro-1H-pyrazino[1,2-a]pyrazin-2-yl]quinoline-8-carbonitrile] | 64 |
| CO[C@@H]1CN(c2ccnc(N3CCN4[C@@H](C3)CN(c3ccc(C#N)c5ncccc35)C[C@H]4C)n2)C[C@H]1N [Example 37, 5-[(4R,9aR)-8-[4-[(3R,4R)-3-amino-4-methoxy-pyrrolidin-1-yl]pyrimidin-2-yl]-4-methyl-3,4,6,7,9,9a-hexahydro-1H-pyrazino[1,2-a]pyrazin-2-yl]quinoline-8-carbonitrile] | 62 |
| CO[C@@H]1CN(c2ccc(CCN3CCN4[C@@H](C3)CN(c3ccc(C#N)n5ncc(F)c35)C[C@H]4C)cn2)C[C@H]1N [Example 67, 4-[(4R,9aS)-8-[2-[6-[(3R,4R)-3-amino-4-methoxy-pyrrolidin-1-yl]-3-pyridyl]ethyl]-4-methyl-3,4,6,7,9,9a-hexahydro-1H-pyrazino[1,2-a]pyrazin-2-yl]-3-fluoro-pyrazolo[1,5-a]pyridine-7-carbonitrile] | 83 |
| [2H]c1ccc2c(N3C[C@@H]4CN(c5ncc(C(=O)N6CC7(CN(C)C7)C6)cc5C)CCN4[C@H](C)C3)ccc(C#N)c2n1 [Example 102, 5-[(4R,9aR)-4-methyl-8-[3-methyl-5-(6-methyl-2,6-diazaspiro[3.3]heptane-2-carbonyl)-2-pyridyl]-3,4,6,7,9,9a-hexahydro-1H-pyrazino[1,2-a]pyrazin-2-yl]-2-deuterio-quinoline-8-carbonitrile] | 154 |
| C[C@@H]1CN(c2ccc(C#N)c3ncccc23)C[C@@H]2CN(CCc3ccc(N4CCNCC4)nc3)CCN21 [Example 11, 5-[(4R,9aS)-4-methyl-8-[2-(6-piperazin-1-yl-3-pyridyl)ethyl]-3,4,6,7,9,9a-hexahydro-1H-pyrazino[1,2-a]pyrazin-2-yl]quinoline-8-carbonitrile] | 37 |
| C[C@@H]1CN(c2ccc(C#N)c3ncccc23)C[C@@H]2CN(c3ccnc(N4CCOC[C@@H](N)C4)c3)CCN21 [Example 53, 5-[(4R,9aS)-8-[2-[(6S)-6-amino-1,4-oxazepan-4-yl]-4-pyridyl]-4-methyl-3,4,6,7,9,9a-hexahydro-1H-pyrazino[1,2-a]pyrazin-2-yl]quinoline-8-carbonitrile] | < 32 |
| [2H]c1ccc2c(N3C[C@@H]4CN(c5ncc(N6CC7CC(C6)N7)cc5C)CCN4[C@@H](C)C3)ccc(C#N)c2n1 [Example 108, 5-[(4S,9aR)-8-[5-(3,6-diazabicyclo[3.1.1]heptan-3-yl)-3-methyl-2-pyridyl]-4-methyl-3,4,6,7,9,9a-hexahydro-1H-pyrazino[1,2-a]pyrazin-2-yl]-2-deuterio-quinoline-8-carbonitrile] | 98 |
| C[C@@H]1CN(c2ccc(C#N)c3ncccc23)C[C@@H]2CN(c3ccnc(N4C[C@@H](F)[C@@H](N)C4)c3)CCN21 [Example 40, 5-[(4R,9aS)-8-[2-[(3S,4R)-3-amino-4-fluoro-pyrrolidin-1-yl]-4-pyridyl]-4-methyl-3,4,6,7,9,9a-hexahydro-1H-pyrazino[1,2-a]pyrazin-2-yl]quinoline-8-carbonitrile] | < 32 |
| C[C@@H]1CN(c2cccc(CCN3CCN4[C@@H](C3)CN(c3ccc(C#N)c5ncccc35)C[C@H]4C)n2)CCN1 [Example 58, 5-[(4R,9aS)-4-methyl-8-[2-[6-[(3R)-3-methylpiperazin-1-yl]-2-pyridyl]ethyl]-3,4,6,7,9,9a-hexahydro-JH-pyrazino[1,2-a]pyrazin-2-yl]quinoline-8-carbonitrile] | 51 |
| C[C@@H]1CN(c2ccc(C#N)c3ncccc23)C[C@@H]2CN(c3ccnc(N4CC(C)(N)C4)c3)CCN21 [Example 56, 5-[(4R,9aS)-8-[2-(3-amino-3-methyl-azetidin-1-yl)-4-pyridyl]-4-methyl-3,4,6,7,9,9a-hexahydro-1H-pyrazino[1,2-a]pyrazin-2-yl]quinoline-8-carbonitrile] | < 32 |
| C[C@@H]1CN(c2ccc(C#N)c3ncccc23)C[C@@H]2CN(Cc3cccc4c3CNC4)CCN21 [Example 72, 5-[(4R,9aS)-8-(isoindolin-4-ylmethyl)-4-methyl-3,4,6,7,9,9a-hexahydro-1H-pyrazino[1,2-a]pyrazin-2-yl]quinoline-8-carbonitrile] | 89 |
| C[C@@H]1CN(c2ccc(C#N)c3ncccc23)C[C@@H]2CN(c3nccc(N4CC(N)C4)n3)CCN21 [Example 39, 5-[(4R,9aR)-8-[4-(3-aminoazetidin-1-yl)pyrimidin-2-yl]-4-methyl-3,4,6,7,9,9a-hexahydro-1H-pyrazino[1,2-a]pyrazin-2-yl]quinoline-8-carbonitrile] | 95 |
| Cc1cnc(N2CCN3[C@@H](C2)CN(c2ccc(C#N)c4ncccc24)C[C@H]3C)nc1N1CCNCC1 [Example 43, 5-[(4R,9aR)-4-methyl-8-(5-methyl-4-piperazin-1-yl-pyrimidin-2-yl)-3,4,6,7,9,9a-hexahydro-1H-pyrazino[1,2-a]pyrazin-2-yl]quinoline-8-carbonitrile] | 78 |
| [2H]c1ccc2c(N3C[C@@H]4CN(c5ccc(N6CC7CCC(C6)N7)nc5)CCN4[C@@H](C)C3)ccc(C#N)c2n1 [Example 112, 5-[(4S,9aR)-8-[6-(3,8-diazabicyclo[3.2.1]octan-3-yl)-3-pyridyl]-4-methyl-3,4,6,7,9,9a-hexahydro-1H-pyrazino[1,2-a]pyrazin-2-yl]-2-deuterio-quinoline-8-carbonitrile] | 82 |
| [2H]c1ccc2c(N3C[C@@H]4CN(c5ccc([C@@H]6CNCCO6)cc5)CCN4[C@@H](C)C3)ccc(C#N)c2n1 [Example 106, 5-[(4S,9aS)-4-methyl-8-[4-[(2R)-morpholin-2-yl]phenyl]-3,4,6,7,9,9a-hexahydro-1H-pyrazino[1,2-a]pyrazin-2-yl]-2-deuterio-quinoline-8-carbonitrile] | 128 |
| C[C@@H]1CN(c2ccc(C#N)c3ncccc23)C[C@@H]2CN(CCc3ccc(N4C[C@@H](N)[C@@H](F)C4)cn3)CCN21 [Example 19, 5-[(4R,9aS)-8-[2-[5-[(3R,4S)-3-amino-4-fluoro-pyrrolidin-1-yl]-2-pyridyl]ethyl]-4-methyl-3,4,6,7,9,9a-hexahydro-1H-pyrazino[1,2-a]pyrazin-2-yl]quinoline-8-carbonitrile] | 48 |
| C[C@@H]1CN(c2ccc(C#N)c3ncccc23)C[C@@H]2CN(CCc3cccc(N4CCN[C@@H](C)C4)n3)CCN21 [Example 21, 5-[(4R,9aS)-4-methyl-8-[2-[6-[(3S)-3-methylpiperazin-1-yl]-2-pyridyl]ethyl]-3,4,6,7,9,9a-hexahydro-1H-pyrazino[1,2-a]pyrazin-2-yl]quinoline-8-carbonitrile] | 56 |
